Assay results: paper PMC3942486, “The Ansamycin Antibiotic, Rifamycin SV, Inhibits BCL6 Transcriptional Repression and Forms a Complex with the BCL6-BTB/POZ Domain” (PLoS ONE, 2014)

Legend:
Type in all cases: binding
[1] = target: T1, BCL6-POZ domain (Homo sapiens, UniProt P41182, C67R/C84N/C8Q); assay: X-ray crystal structure ([…] Å); 1H-15N TROSY-HSQC NMR titration
T1 construct: POZ domain (residues 7 to 128)

[2] = target: T2, BCL6-POZ domain (Homo sapiens, UniProt P41182, C8Q/C67R/C84N); assay: 1H-15N TROSY-HSQC NMR chemical shift perturbation
T2 construct: POZ domain (residues 7 to 128)

[3] = target: T2, BCL6-POZ domain; assay: 1H-15N TROSY-HSQC NMR chemical shift perturbation; also relieves BCL6 repression in HEK293T luciferase reporter assay
[4] = target: T2, BCL6-POZ domain; assay: 1H-15N TROSY-HSQC NMR chemical shift perturbation (weakest of the series)

CO[C@H]1/C=C/O[C@@]2(C)Oc3c(C)c(O)c4c(c3C2=O)C2=NC3(CCN(CC(C)C)CC3)NC2=C(NC(=O)/C(C)=C\C=C\[C@H](C)[C@H](O)[C@@H](C)[C@@H](O)[C@@H](C)[C@H](OC(C)=O)[C@@H]1C)C4=O [rifabutin]
Kd [1]: ~1000 µM

CO[C@H]1/C=C/O[C@@]2(C)Oc3c(C)c(O)c4c(O)c(c(/C=N/N5CCN(C)CC5)c(O)c4c3C2=O)NC(=O)/C(C)=C\C=C\[C@H](C)[C@H](O)[C@@H](C)[C@@H](O)[C@@H](C)[C@H](OC(C)=O)[C@@H]1C [rifampicin]
1H-15N TROSY-HSQC NMR chemical shift perturbation [2]: These derivatives all caused spectral changes of varying magnitude with the greatest shifts caused by rifabutin

CO[C@H]1/C=C/O[C@@]2(C)Oc3c(C)c(O)c4c(O)c(cc(O)c4c3C2=O)NC(=O)/C(C)=C\C=C\[C@H](C)[C@H](O)[C@@H](C)[C@@H](O)[C@@H](C)[C@H](OC(C)=O)[C@@H]1C [rifamycin SV]
1H-15N TROSY-HSQC NMR chemical shift perturbation; also relieves BCL6 repression [3]: resulted in a subset of peaks shifting in a concentration dependent manner

CO[C@H]1/C=C/O[C@@]2(C)Oc3c(C)c(O)c4c(O)c(c(/C=N/N5CCN(C6CCCC6)CC5)c(O)c4c3C2=O)NC(=O)/C(C)=C\C=C\[C@H](C)[C@H](O)[C@@H](C)[C@@H](O)[C@@H](C)[C@H](OC(C)=O)[C@@H]1C [rifapentine]
1H-15N TROSY-HSQC NMR chemical shift perturbation [2]: order of binding from weakest to strongest was: rifaximin, rifapentine, 3-formyl rifamycin, rifampicin, rifamycin SV and rifabutin

CO[C@H]1/C=C/O[C@@]2(C)Oc3c(C)c(O)c4c(O)c(c5c(nc6cc(C)ccn65)c4c3C2=O)NC(=O)/C(C)=C\C=C\[C@H](C)[C@H](O)[C@@H](C)[C@@H](O)[C@@H](C)[C@H](OC(C)=O)[C@@H]1C [rifaximin]
1H-15N TROSY-HSQC NMR chemical shift perturbation (weakest of the series) [4]: order of binding from weakest to strongest was: rifaximin, rifapentine, 3-formyl rifamycin, rifampicin, rifamycin SV and rifabutin
